Source: PMC10362319 (Toxicon: X, 2023)

How the values were obtained:
[1] = HLM incubation, decreasing thereafter
[2] = BTX-2 5 μM, 60 min incubations with HLM and fish microsomes
[3] = RSN1 control without NADPH regeneration system
[4] = Chemical GSH conjugation of BTX-2 without microsomes; format: physicochemical
[5] = GSH conjugation of BTX-2 with active RSN2 microsomes and 100 μM GSH; format: in vitro ADME, Lutjanus campechanus
[6] = GSH conjugation of BTX-2 with deactivated RSN2 microsomes and 100 μM GSH; format: in vitro ADME, Lutjanus campechanus

41,43-dihydro-BTX-2 [Compound 2b]
time at which the metabolite reached a maximum [1]: about 15 min

41,43-dihydro-BTX-B5 [Compound 5e]
occurrence of the metabolite across microsomal incubations [2]: only produced by HLM

BTX-9 [Compound 3]
metabolite formation where the NADPH regeneration system was excluded [3]: not formed

Hydroxyl BTX-2 (rings A-E) [Compound 4b]
occurrence of the metabolite across microsomal incubations [2]: occurred mainly in the two Lutjanid species

41,43-dihydro-BTX-B5 [Compound 5d]
occurrence of the metabolite across microsomal incubations [2]: only produced by HLM

BTX-2-GSH [Compound 12]
formation rate of BTX-2-GSH [4]: 0.46 min⁻¹ | formation rate of BTX-2-GSH [5]: 0.18 min⁻¹ | formation rate of BTX-2-GSH [6]: 0.46 min⁻¹

A-ring hydrolyzed BTX-3 [Compound 6a]
occurrence of the metabolite across microsomal incubations [2]: produced in all fish microsomes and in HLM
